Experimental data taken from paper PMC3154929, “Phosphatase-Coupled Universal Kinase Assay and Kinetics for First-Order-Rate Coupling Reaction” (PLoS ONE, 2011).

Target: T1, human glucokinase (GCK) (Homo sapiens, UniProt P35557)
T1 construct: V16 to Q465, N-terminal 6xHis tag, expressed in E. coli
T1 sequence (P35557 16-465): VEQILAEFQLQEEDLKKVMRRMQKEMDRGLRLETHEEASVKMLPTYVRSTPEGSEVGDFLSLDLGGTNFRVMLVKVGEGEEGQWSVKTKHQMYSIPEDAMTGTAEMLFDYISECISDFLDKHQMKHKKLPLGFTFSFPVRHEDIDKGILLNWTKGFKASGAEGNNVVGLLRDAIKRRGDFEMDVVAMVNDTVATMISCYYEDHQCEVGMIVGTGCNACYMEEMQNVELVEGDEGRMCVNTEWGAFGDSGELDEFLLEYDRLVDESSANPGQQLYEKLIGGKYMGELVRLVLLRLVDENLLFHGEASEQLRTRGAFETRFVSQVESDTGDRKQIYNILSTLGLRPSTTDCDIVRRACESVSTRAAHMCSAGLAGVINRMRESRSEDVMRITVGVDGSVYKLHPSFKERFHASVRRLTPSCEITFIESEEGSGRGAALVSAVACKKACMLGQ
Assay: CD39L2-coupled malachite green phosphate assay, OD620
Type: biochemical
Conditions: 0.12 mM ATP, 10 mM MgCl2, 10 mM CaCl2, 150 mM NaCl, 25 mM Tris pH 7.5, room temperature

Km: 7.23 ± 1.44 mM
Structure (SMILES): OC[C@H]1OC(O)[C@H](O)[C@@H](O)[C@@H]1O (stereo partly shown) [glucose]
